Measurements: patent US4962112A, “7-(2-methyl-4-aminopyrrolidinyl)naphthryidine and quinoline compounds” (Abbott Laboratories, priority 1988, dated 1990)
In brackets after ≈: the same amount, converted by molar mass. Where two headings read alike, the source gives them in different places.

Columns and labels:
E. faecalis = assay: In vitro antibacterial activity, agar dilution MIC; type: cell-based; settings: Enterococcus faecalis, 18 h
S. agalactiae = assay: In vitro antibacterial activity, agar dilution MIC; type: cell-based; settings: Streptococcus agalactiae, 18 h; S. agalactiae CMX 508 (Table 1)
S. pyogenes = assay: In vitro antibacterial activity, agar dilution MIC; type: cell-based; settings: Streptococcus pyogenes, 18 h, S. pyogenes M79061-98
K. pneumoniae = assay: In vitro antibacterial activity, agar dilution MIC; type: cell-based, Klebsiella pneumoniae
P. mirabilis = assay: In vitro antibacterial activity, agar dilution MIC; type: cell-based; settings: Proteus mirabilis, 18 h
P. aeruginosa = assay: In vitro antibacterial activity, agar dilution MIC; type: cell-based; settings: Pseudomonas aeruginosa, 18 h
E. coli = assay: In vitro antibacterial activity, agar dilution MIC; type: cell-based; settings: Escherichia coli
Method: (§1) The in vitro antibacterial activity of the test compound was determined by conventional agar dilution procedures. The organisms were grown overnight in brain-heart infusion (BHI) broth (Difco 0037-01-6) at 36° C. Twofold dilutions of the stock solution ([…]) of the test compound were made in BHI agar obtain a test concentration ranging from […]. The plate was inoculated with approximately 10^4 organisms. It was then incubated at 36° C. for 18 h. the minimal inhibitory concentration was the lowest concentration of the test compound that yielded no visible growth on the plate.

H. influenza = assay: In vitro antibacterial activity, agar dilution MIC; type: cell-based; settings: 18 h
Method: as §1

L. bozemanni = assay: In vitro antibacterial activity, agar dilution MIC; type: cell-based; settings: 18 h; L. bozemanni ATCC 33217
Method: as §1

S. aureus = assay: In vitro antibacterial activity, agar dilution MIC; type: cell-based; settings: Staphylococcus aureus
Method: as §1

N. gonorrhoeae = assay: In vitro antibacterial activity, agar dilution MIC; type: cell-based; settings: Neisseria gonorrhoeae, 18 h
L. pneumophila = assay: microbe, parasite or virus in culture; type: cell-based; settings: Legionella pneumophila
B. fragilis = assay: In vitro antibacterial activity, agar dilution MIC; type: cell-based; settings: Bacteroides fragilis
C. difficile = assay: In vitro antibacterial activity, agar dilution MIC; type: cell-based; settings: Clostridioides difficile
[1] = Aqueous solubility in Ringer's buffer at pH 7.5 (HPLC); type: physicochemical
Method: A known excess weight of the compound was shaken overnight with a known volume of Ringer's buffer (bicarbonate buffer containing sodium, potassium, calcium and magnesium ions, initially adjusted to pH 7.5). The contents were filtered, and the clear filtrate was analyzed after appropriate dilution using HPLC (UV absorbance detection).

[2] = Oral pharmacokinetics, blood level by disk agar diffusion bioassay; type: in vivo, Mice; settings: for Blood Level of Compound: oral 100 mg/kg; for serum concentrations / blood levels (in words): versus analogs A and B at 100 mg/kg
Method: Mice were administered the quantity of compound indicated orally, as a single dose. At the specified time intervals, blood was collected from groups of five mice. All samples were assayed by a disk agar diffusion bioassay procedure. Bacillus subtilis 6633 or Klebsiella pneumoniae 10032 were used as the assay organisms, and seek agar medium No. 1 (BBL Microbiology Systems; Cockeysville, MD) was the growth medium. The plates were incubated at 32° C for 18 h and read with an image analyzer (Optomax Inc.).

[3] = Klebsiella pneumoniae, 18 h, K. pneumoniae CMX 724A, read-out: MIC
[4] = ATCC25922, 18 h, E. coli ATCC 25922
[5] = H. influenza 588A, read-out: MIC
[6] = ATCC25923, 18 h, S. aureus ATCC 25923
[7] = ATCC9689, 18 h, C. difficile ATCC 9689
[8] = ATCC17857, 18 h, C. difficile ATCC 17857
[9] = compared with 2-unsubstituted aminopyrrolidine analogs

NC1CCN(c2nc3c(cc2F)c(=O)c(C(=O)O)cn3-c2ccc(F)cc2F)C1 (stereo not shown) [Example A, 7-(3-Amino-pyrrolidin-1-yl)-1-(2,4-difluorophenyl)-1,4-dihydro-6-fluoro--oxo-1,8-naphthyridine-3-carboxylic acid, reference compound]
MIC (E. faecalis; E. faecalis CMX 729G): 0.25 µg/mL (≈ 0.618 µM) | MIC (E. faecalis; E. faecalis GYR 1166): 0.5 µg/mL (≈ 1.24 µM) | MIC (S. agalactiae): 0.12 µg/mL (≈ 0.297 µM) | MIC (S. pyogenes): 0.25 µg/mL (≈ 0.618 µM) | MIC (K. pneumoniae; K. pneumoniae CMX 735A): 0.06 MCG/ML | MIC (K. pneumoniae; [3]): 0.06 µg/mL (≈ 0.148 µM) | MIC (P. mirabilis; P. mirabilis CMX 704F): 0.25 µg/mL (≈ 0.618 µM) | MIC (P. mirabilis; P. mirabilis CMX 729B): 0.12 µg/mL (≈ 0.297 µM) | MIC (P. aeruginosa; P. aeruginosa A 5005): 0.5 µg/mL (≈ 1.24 µM) | MIC (P. aeruginosa; P. aeruginosa CFS 350F): 0.5 µg/mL (≈ 1.24 µM) | MIC (P. aeruginosa; P. aeruginosa CFS 387C): 1 µg/mL (≈ 2.47 µM) | MIC (P. aeruginosa; P. aeruginosa CMX 719A): 2 µg/mL (≈ 4.95 µM) | MIC (E. coli; 18 h, E. coli CMX 733): 0.03 µg/mL (≈ 0.0742 µM) | MIC (E. coli; 18 h, E. coli CMX 744A): 0.03 µg/mL (≈ 0.0742 µM) | MIC (E. coli; 18 h, E. coli CMX 756): 0.03 µg/mL (≈ 0.0742 µM) | MIC (E. coli; [4]): 0.03 µg/mL (≈ 0.0742 µM) | MIC (H. influenza; H. influenza 504): 0.15 µg/mL (≈ 0.371 µM) | MIC (H. influenza; H. influenza 519A): 0.15 µg/mL (≈ 0.371 µM) | MIC (H. influenza; H. influenza 566A): 0.15 µg/mL (≈ 0.371 µM) | MIC (H. influenza; [5]): 0.008 µg/mL (≈ 0.0198 µM) | MIC (L. bozemanni): 0.5 µg/mL (≈ 1.24 µM) | MIC (S. aureus; 18 h, S. aureus CMX 705): 0.03 µg/mL (≈ 0.0742 µM) | MIC (S. aureus; 18 h, S. aureus CMX 730A): 0.03 µg/mL (≈ 0.0742 µM) | MIC (S. aureus; 18 h, S. aureus GYR 1162): 0.03 µg/mL (≈ 0.0742 µM) | MIC (S. aureus; [6]): 0.03 µg/mL (≈ 0.0742 µM) | MIC (N. gonorrhoeae; N. gonorrhoeae 35F AMPI): 0.004 µg/mL (≈ 0.00989 µM) | MIC (N. gonorrhoeae; N. gonorrhoeae CMX 591): 0.06 µg/mL (≈ 0.148 µM) | MIC (L. pneumophila; 18 h): 0.25 µg/mL (≈ 0.618 µM) | MIC (L. pneumophila; ATCC33152, 18 h): 0.25 µg/mL (≈ 0.618 µM) | MIC (B. fragilis; 18 h, B. fragilis AT25285): 0.4 µg/mL (≈ 0.989 µM) | MIC (B. fragilis; UC2, 18 h, B. fragilis UC-2): 0.8 µg/mL (≈ 1.98 µM) | MIC (C. difficile; [7]): 1.6 µg/mL (≈ 3.96 µM) | MIC (C. difficile; [8]): 0.8 µg/mL (≈ 1.98 µM) | solubility ([1]; at pH 7.5 in Ringer's buffer): 8 µg/mL (≈ 19.8 µM) | Blood Level of Compound ([2]; mice, t = 1.0 h): 2300 ng/mL | Blood Level of Compound ([2]; mice, t = 2.0 h): 1700 ng/mL | Blood Level of Compound ([2]; mice, t = 3.0 h): 1700 ng/mL | Blood Level of Compound ([2]; mice, t = 6.0 h): 900 ng/mL

C[C@H]1C[C@H](N)CN1c1nc2c(cc1F)c(=O)c(C(=O)O)cn2-c1ccc(F)cc1F [Example 2, (2'S,4'S)-7-(4'-Amino-2'-methylpyrrolidin-1'-yl)-1-(o,p-difluorophenyl)-1,4-dihydro-6-fluoro-4-oxo-1,8-naphthyridine-3-Carboxylic Acid]
MIC (E. faecalis; E. faecalis CMX 729G): 0.25 µg/mL (≈ 0.598 µM) | MIC (E. faecalis; E. faecalis GYR 1166): 0.5 µg/mL (≈ 1.2 µM) | MIC (S. agalactiae): 0.12 µg/mL (≈ 0.287 µM) | MIC (S. pyogenes): 0.25 µg/mL (≈ 0.598 µM) | MIC (K. pneumoniae; K. pneumoniae CMX 735A): 0.06 MCG/ML | MIC (K. pneumoniae; [3]): 0.06 µg/mL (≈ 0.143 µM) | MIC (P. mirabilis; P. mirabilis CMX 704F): 0.25 µg/mL (≈ 0.598 µM) | MIC (P. mirabilis; P. mirabilis CMX 729B): 0.25 µg/mL (≈ 0.598 µM) | MIC (P. aeruginosa; P. aeruginosa A 5005): 0.5 µg/mL (≈ 1.2 µM) | MIC (P. aeruginosa; P. aeruginosa CFS 350F): 0.5 µg/mL (≈ 1.2 µM) | MIC (P. aeruginosa; P. aeruginosa CFS 387C): 0.5 µg/mL (≈ 1.2 µM) | MIC (P. aeruginosa; P. aeruginosa CMX 719A): 2 µg/mL (≈ 4.78 µM) | MIC (E. coli; 18 h, E. coli CMX 733): 0.03 µg/mL (≈ 0.0717 µM) | MIC (E. coli; 18 h, E. coli CMX 744A): 0.03 µg/mL (≈ 0.0717 µM) | MIC (E. coli; 18 h, E. coli CMX 756): 0.03 µg/mL (≈ 0.0717 µM) | MIC (E. coli; [4]): 0.03 µg/mL (≈ 0.0717 µM) | MIC (H. influenza; H. influenza 504): 0.008 µg/mL (≈ 0.0191 µM) | MIC (H. influenza; H. influenza 519A): 0.008 µg/mL (≈ 0.0191 µM) | MIC (H. influenza; H. influenza 566A): 0.008 µg/mL (≈ 0.0191 µM) | MIC (H. influenza; [5]): 0.008 µg/mL (≈ 0.0191 µM) | MIC (L. bozemanni): 0.25 µg/mL (≈ 0.598 µM) | MIC (S. aureus; 18 h, S. aureus CMX 705): 0.03 µg/mL (≈ 0.0717 µM) | MIC (S. aureus; 18 h, S. aureus CMX 730A): 0.03 µg/mL (≈ 0.0717 µM) | MIC (S. aureus; 18 h, S. aureus GYR 1162): 0.03 µg/mL (≈ 0.0717 µM) | MIC (S. aureus; [6]): 0.06 µg/mL (≈ 0.143 µM) | MIC (N. gonorrhoeae; N. gonorrhoeae 35F AMPI): 0.004 µg/mL (≈ 0.00956 µM) | MIC (N. gonorrhoeae; N. gonorrhoeae CMX 591): 0.06 µg/mL (≈ 0.143 µM) | MIC (L. pneumophila; 18 h): 0.25 µg/mL (≈ 0.598 µM) | MIC (L. pneumophila; ATCC33152, 18 h): 0.25 µg/mL (≈ 0.598 µM) | MIC (B. fragilis; 18 h, B. fragilis AT25285): 0.5 µg/mL (≈ 1.2 µM) | MIC (B. fragilis; UC2, 18 h, B. fragilis UC-2): 0.5 µg/mL (≈ 1.2 µM) | MIC (C. difficile; [7]): 1 µg/mL (≈ 2.39 µM) | MIC (C. difficile; [8]): 1 µg/mL (≈ 2.39 µM) | AQUEOUS SOLUBILITY ([1]; at pH 7.5 in Ringer's buffer): 0.15 mg/mL | solubility properties (in words) [1, 9]: significantly improved aqueous solubility properties | oral absorption properties (in words) [2, 9]: greatly improved oral absorption properties | concentration at 0.5 h ([2]; mouse, blood, mice, oral 25 mg/kg, t = 0.5 h, read-out: Blood Level of Compound): 5900 ng/mL | concentration at 1 h ([2]; mouse, blood, mice, oral 25 mg/kg, t = 1.0 h, read-out: Blood Level of Compound): 3200 ng/mL | concentration at 2 h ([2]; mouse, blood, mice, oral 25 mg/kg, t = 2.0 h, read-out: Blood Level of Compound): 3300 ng/mL | concentration at 3 h ([2]; mouse, blood, mice, oral 25 mg/kg, t = 3.0 h, read-out: Blood Level of Compound): 2800 ng/mL | concentration at 6 h ([2]; mouse, blood, mice, oral 25 mg/kg, t = 6.0 h, read-out: Blood Level of Compound): 1300 ng/mL | concentration at 24 h ([2]; mouse, blood, mice, oral 25 mg/kg, t = 24.0 h, read-out: Blood Level of Compound): 200 ng/mL | serum concentrations / blood levels (in words) ([2]; oral 25 mg/kg): still achieve better blood | serum concentrations / blood levels (in words) ([2]; oral 25 mg/kg, listed as Compound 2): higher serum concentrations
